For experiment [1], the target named is humanized farnesyl pyrophosphate synthase (HsFPPS) (Homo sapiens (Human), UniProt P14324). Description: In vitro HsFPPS enzyme activity assay. The experiment is classed as biochemical. As for the experimental part:
The measurement method is briefly described as follows: the expression of HsFPPS with 6 consecutive His at the N-terminus was induced in vitro, collected, and purified by Ni column. An in vitro HsFPPS enzyme activity assay was performed in a 96-well plate with 200 μl of solution per well. The buffer of the system was 25 mM HEPES, 2.5 mM MgCl2, pH 7.4. Using DMAPP and IPP as reaction substrates, the change of the UV value at a wavelength of 360 nm was monitored in real time in a phosphate lyase system. The ORIGIN 8.0 software was used to plot and fit. The IC50 values for the inhibition of FPPS by the TH-Z80 series of compounds were shown in the following table, in micromoles per liter (μM).
HsFPPs with 6 consecutive His at the N-terminus was induced to express in vitro, collected, and purified by Ni column. In vitro HsFPPs enzymatic activity assay was performed in a 96-well plate at 200 μl of solution per well. The buffer of the system was 25 mM HEPES, 2.5 mM MgCl2, pH 7.4. Using DMAPP and IPP as reaction substrates, the changes of UV at 360 nm were monitored in real-time in phosphate lyase system. ORIGIN 8.0 software was used to plot and fit.

In experiment [2] the test system is PvGGPPS (geranylgeranyl pyrophosphate synthase from Plasmodium). Description: In vitro PvGGPPS enzymatic activity assay. The experiment is classed as biochemical. The following applies: GPP and IPP substrates. As for the experimental part:
PvGGPPs with 6 consecutive His at the N-terminus was induced to express in vitro, collected, and purified by Ni column. In vitro PvGGPPs enzymatic activity assay was performed in a 96-well plate at 200 μl of solution per well. The buffer of the system was 25 mM HEPES, 2.5 mM MgCl2, pH 7.4. Using GPP and IPP as reaction substrates, a 360 nm continuous spectrophotometric detection was performed in a phosphate lyase system. ORIGIN 8.0 software was used to plot and fit.

The test system of experiment [3] is Plasmodium falciparum 3D7. Description: Test of plasmodium activity (SYBR-GREEN1). The experiment is classed as cell-based. The settings on record: infected erythrocytes, 72 hours; read-out: Malaria (IC50/μM). As for the experimental part:
Plasmodium falciparum 3D7 was cultured with […] medium mixed with 10% human O-type blood serum and 25 mM HEPES. The cultivation process was maintained in a carbon dioxide incubator under 5% carbon dioxide. In vitro drug testing experiments were performed on a 96-well plate. The test drug was dissolved in PBS and pre-diluted with complete medium. Infected erythrocytes were cultured in triplicate for 72 hours in 3-fold serial dilutions of drug. Then an equal amount of SYBR-GREEN1 was added to each well. The detection was then performed at 485 nm for excitation light and 538 nm for emitted light. […] ORIGIN 8.0 software was used to plot and fit.

In a further experiment the test system is MDA-MB-231 cells. Description: MDA-MB-231 proliferation MTT test. The experiment is classed as cell-based, human. The following applies: 72 hours. As for the experimental part: • Drug dissolution: […] The prepared bisphosphonate stock solution was diluted with DMEM complete medium. The maximum concentration was 1 mM. The dilution was performed serially in a ratio of 1:3.2 with a total of 11 concentration gradients; a. MDA-MB-231 cells were digested the day before. Centrifugation was performed at 1000 rmp for 3 min. The cells were counted. The cells were seeded into a 96-well plate at 3000 cells/well in a volume of 100 μl per well and cultured for 14-16 h. It should be noted that the cell count should be accurate, and the amount of cells seeded per well should be consistent. The cell suspension can be gently shaken in the intermittence of plating, or a row of cells were plated and the cell suspension was pipetted gently with a pipette. The speed of pipetting into the 96-well plate with a pipette should not be too fast or too slow, in order to avoid uneven distribution of cells in the plate, affecting the experiments; the wells at the fringe of the 96-well plate will evaporate slightly faster and the concentration of the solution will change slightly faster. Under normal situation, the central 60 wells should be selected for stimulation. Also, the pipetted liquid should be prevented from creating bubbles. b. After the cells had adhered, the liquid in the 96-well plate was pipetted out and discarded. […] c. 72 hours after the action of drug, the prepared MTT solution (immediately before use, a certain amount of MTT powder was weighed and dissolved in PBS at 5 mg/ml, under dark, filter with 0.22 filter membrane) was added directly to each well with 20 μl per well and continued to culture for 4 hours; d. The filter paper (which can be replaced by an absorbent paper) was laid, and the plate was inverted gently (be careful to prevent the crystal in the well from dropping). After the liquid in the wells was removed, 150 μl of DMSO was added to dissolve the crystals, and the mixture was shaken thoroughly with a shaker for a period of time just to dissolve the crystals. The absorbance (OD value) of each well was measured at 570 nm with ELIASA. The mean value of blank control was calculated as OD Blank. OD value for each well=OD measured-OD Blank. ODNT mean value was calculated. […] Mean and standard error were then calculated. The mean and standard error of each group of drug concentration (uM) and corresponding drug inhibition rate were fitted by Graph Prism software to obtain the IC50 of the drug.

Experiment [4] concerns anti-OVA IgM and IgG antibodies. Description: OVA evaluation system: adjuvant activity in antibody titer in mice. The experiment is classed as in vivo. The following applies: for adjuvant effect among statin drugs / IgM and IgG antibody titers vs PBS or DMSO control: statins with OVA, soles injection; for IgM and IgG antibody titers vs PBS or DMSO control: Day 7 and Day 14. The procedure:
OVA evaluation system was used to determine adjuvant activity in antibody titer.
Mice of C57B/6 strain were used. The mice in the experimental group were injected with the obtained mixture of each of the statins and OVA antigen through soles injection, with 20 μl for each mouse. The mice in the control group were injected with a 1:1 mixture of PBS or DMSO (10 μl) and 10 μl OVA antigen (PBS or DMSO is 10 μl, respectively, and the antigen is 10 μl) through soles injection, with 20 μl for each mouse. On Day 7 and Day 14 after immunization, blood was taken from the mice's orbits, with 100 μl was taken from each mouse. The obtained blood was left at 4° C. overnight, and centrifuged at 6000 rpm for 8 min. The supernatant serum was removed and the titers of anti-OVA IgM and IgG antibodies in the serum were determined.
Test of the OVA antibody titer: The OVA protein was diluted to a concentration of 2 μg/ml with a carbonate solution of pH 9.6, coated in a 96-well ELISA plate at 50 μl per well, and left at 4° C. overnight. The ELISA plate was washed five times with PBS containing 0.05% Tween 20, blocked with 1% BSA solution at 200 μl per well, and incubated at room temperature for 2 h. The ELISA plate was washed five times with PBST (Phosphate Buffered Saline with Tween), a 2-fold serial dilution of the mouse serum after immunized with OVA was added at 50 μl per well and incubated at room temperature for 2 h. After the ELISA plate was washed five times with PBST, HRP (horseradish peroxidase)-labeled goat-anti-mouse IgM or IgG antibody was added and incubated at room temperature for 45 min. The ELISA plate was washed five times with PBST, and a color developing solution of sodium citrate OPD (o-phenylenediamine) was added. After 10 min of color development in the dark, sulfuric acid was added to terminate the reaction. The reading was performed with ELIASA OD490. The maximum serum dilution factor, when the ratio of light absorptions of the experimental group to the control group was >2.0, was the titer of the anti-OVA antibody in the serum.
Each test compound was formulated at a concentration of 2 mg/ml and the concentration of OVA antigen was 2 mg/ml. Each compound was mixed with OVA at 1:1. Each C57B/6 mouse in the experimental group was injected with 100 μl of the mixture (containing 50 μl of the antigen and 50 μl of the compound) by intramuscular injection at the right thigh. On Day 7 and Day 14 after immunization, blood was taken from the mice's orbit, and 100 μl was taken for each mouse. The obtained blood was allowed to stand at 4° C. overnight, and centrifuged at 6000 rpm for 8 min. The supernatant serum was removed, and the titers of anti-OVA IgM and IgG antibodies in the serum were determined.
Method: each of the test compounds (the 10 bisphosphonates as described above) was mixed with the OVE antigen at 1:1, and the concentrations of bisphosphonic acid and OVA were both 10 mg/ml. Mice of C57B/6 strain were used. The mice in the experimental group were injected with the mixture of each of the test compounds and OVA antigen through soles injection, with 20 μl for each mouse, and wherein the amounts of OVA antigen and each of the test compounds were both 100 ug. The mice in the control group were injected with a 1:1 mixture of […] and 10 μl OVA antigen through sole injection. On Day 7 and Day 14 after immunization, blood was taken from the mice's orbits, and 100 μl was taken from each mouse.
The obtained blood was left at 4° C. overnight, and centrifuged at 6000 rpm for 8 min. The supernatant serum was removed, and the titers of anti-OVA IgM and IgG antibodies in the serum were determined.
Method: TH-Z144 and TH-Z145 were prepared at the concentration of 10 mg/ml, the concentration of OVA antigen was also 10 mg/ml, and the compound and the antigen were mixed at 1:1. Mice of C57B/6 strain were used.

The mark [5] stands for this setting: Example 15 table, read-out: HsFPPS (IC50/μM).
The mark [6] stands for this setting: TH-Z80 series, DMAPP and IPP substrates, pH 7.4, read-out: IC50 for inhibition of FPPS.
[7] abbreviates: o-aminopyridine bisphosphonic acid compounds, read-out: IC50 (inhibition of FPPS).

Where two headings read alike, the source gives them in different places.

Sequence of humanized farnesyl pyrophosphate synthase (HsFPPS) (P14324 whole entry, looked up): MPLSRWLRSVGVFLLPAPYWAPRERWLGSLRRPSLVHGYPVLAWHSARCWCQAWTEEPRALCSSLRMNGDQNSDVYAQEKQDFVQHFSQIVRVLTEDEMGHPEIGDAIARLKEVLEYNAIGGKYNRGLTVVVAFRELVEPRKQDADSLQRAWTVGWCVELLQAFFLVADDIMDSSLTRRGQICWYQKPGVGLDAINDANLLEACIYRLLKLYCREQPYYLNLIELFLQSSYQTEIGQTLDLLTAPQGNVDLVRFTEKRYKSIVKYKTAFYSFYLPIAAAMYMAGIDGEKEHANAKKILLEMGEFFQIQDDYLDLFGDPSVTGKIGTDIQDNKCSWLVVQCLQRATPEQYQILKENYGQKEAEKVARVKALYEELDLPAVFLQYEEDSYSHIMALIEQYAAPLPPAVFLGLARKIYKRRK

Regarding `CCCOc1ccc2c(c1)ncn2CC(O)(P(=O)(O)O)P(=O)(O)O` [TH-Z149], the IC50 is 0.27 µM in experiment [1] (setting [5]); 0.27 µM in experiment [1] (setting [6]); 0.47 µM in experiment [2]; 0.92 µM in experiment [3]; 36100 nM with MDA-MB-231 cells.

In the case of `CC[C@H](C)C(=O)O[C@H]1CCC=C2C=C[C@H](C)[C@H](CC[C@@H]3C[C@@H](O)CC(=O)O3)[C@H]21` [mevastatin, reference compound], in experiment [4], the “adjuvant effect among statin drugs” value is “most significant adjuvant effects”; the “IgM and IgG antibody titers vs PBS or DMSO control” value is “significantly higher titers”.

`CCCCCCOc1ccn2c(CC(O)(P(=O)(O)O)P(=O)(O)O)cnc2c1` [TH-Z97, (1-hydroxy-2-(7-n-hexyloxyimidazo[1,2-a]pyridin-3-yl)ethane-1,1-diyl)bisphosphonic acid] came in with an IC50 in experiment [1] of 0.06 µM. For the same compound, the “IgG antibody titer vs PBS control” value in experiment [4] (Day 7 and Day 14, OVA) is given as “significantly higher titers”.

As for `CCOc1ccc2c(c1)ncn2CC(O)(P(=O)(O)O)P(=O)(O)O` [TH-Z148], the IC50 is 0.068 µM in experiment [1] (setting [5]); 0.068 µM in experiment [1] (setting [6]); 0.56 µM in experiment [2]; 1.86 µM in experiment [3]; 7300 nM in the experiment with MDA-MB-231 cells.

Take `CC(C)n1c(/C=C/C(O)CC(O)CC(=O)O)c(-c2ccc(F)cc2)c2ccccc21` (stereo not drawn) [fluvastatin, reference compound]: the “IgM and IgG antibody titers vs PBS or DMSO control” value in experiment [4] is listed as “significantly higher titers”.

For `NC(=O)c1cc(COc2ccnc(NC(P(=O)(O)O)P(=O)(O)O)c2)ccn1` [TH-Z109], the IC50 in experiment [1] (setting [7]) was 0.643 µM.

As to `O=P(O)(O)C(Nc1cc(-n2cc3c(n2)CCCC3)ccn1)P(=O)(O)O` [TH-Z108], the IC50 in experiment [1] (setting [7]) was 0.112 µM.

Consider `CC[C@H](C)C(=O)O[C@H]1C[C@@H](C)C=C2C=C[C@H](C)[C@H](CC[C@@H]3C[C@@H](O)CC(=O)O3)[C@H]21` [lovastatin, reference compound], for which, in experiment [4], the “adjuvant effect among statin drugs” value is “most significant adjuvant effects”; the “IgM and IgG antibody titers vs PBS or DMSO control” value is on record as “significantly higher titers”.

As for `O=C(O)C[C@H](O)C[C@H](O)/C=C/c1c(C2CC2)nc2ccccc2c1-c1ccc(F)cc1` [pitavastatin, reference compound], the “IgM and IgG antibody titers vs PBS or DMSO control” value in experiment [4] is given as “significantly higher titers”.

As to `CC(C)c1nc(N(C)S(C)(=O)=O)nc(-c2ccc(F)cc2)c1/C=C/[C@@H](O)C[C@@H](O)CC(=O)O` [rosuvastatin, reference compound], the “IgM and IgG antibody titers vs PBS or DMSO control” value in experiment [4] was “significantly higher titers”.

For the compound `CC(=C\C(=O)O)/C=C(\C)C[C@H](C)CCCC[C@H]1OC(=O)[C@@H]1CO` [Hymeglusin, 11-[3R-(hydroxymethyl)-4-oxo-2R-oxetanyl]-3,5,7R-trimethyl-2E,4E-undecadienoic acid, reference compound], in experiment [4] (100 μg, intramuscular, fourteen days after immunization), the “IgG antibody titer vs PBS control” value is “significantly higher titers”.

As to `O=P(O)(O)C(O)(Cn1cnc2cc(OCl)ccc21)P(=O)(O)O` [II-7], the values for the IC50 in experiment [1] (setting [5]), in experiment [2] and in experiment [3] were 0.16 µM, 0.82 µM and 0.69 µM, respectively.

As to `O=P([O-])([O-])C(CCCc1cccc(Oc2ccccc2)c1)S(=O)(=O)[O-].[K+].[K+].[K+]` (stereo not drawn) [TH-Z66, reference compound], in experiment [4] (7 days after immunization), the “IgG antibody titer vs control group” value is listed as “lower than those in mice in the control group”. The adjuvant effect result in experiment [4] (SQS inhibitor) is recorded as “does not have an adjuvant effect”. In addition, in experiment [4] (SQS inhibitor 100 μg with OVA, sole), the “IgG and IgM antibody titers vs PBS control” value is listed as “did not differ significantly”.

For the compound `CCCCCCCCCCCCOc1ccc2c(c1)ncn2CC(O)(P(=O)(O)O)P(=O)(O)O` [TH-Z154], the IC50 in experiment [1] (setting [5]) is greater than 5 µM; in experiment [1] (setting [6]) it was greater than 5 µM; in experiment [2], 5.16 µM; in experiment [3] it was 0.75 µM.

Take `O=P(O)(O)C(Nc1cc(OCc2ccccc2)ccn1)P(=O)(O)O` [TH-Z106]: in experiment [1] (setting [7]), the IC50 worked out at 0.108 µM.

For the origin of these results see patent US20250367283A1, “MEVALONATE PATHWAY INHIBITOR AS HIGHLY-EFFICIENT VACCINE ADJUVANT” (Tsinghua University, priority 2015, published 2025).
